Test [1] addresses T1, His6-HGFR (HGFR cytoplasmic domain) (Homo sapiens, UniProt P08581).
T1 construct: made in house; host or cells: Sf9 insect cells (Spodoptera frugiperda), baculovirus, pFastBac-HT vector
The test is described as follows: Inhibitory activity against HGFR tyrosine kinase activity (HTRF). It is filed as biochemical. Conditions: biotin-poly(GT), ATP, 30° C. 10 min. The procedure, abridged:
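Sf9-expressed, Ni-NTA-purified N-terminal His6-tagged HGFR cytoplasmic domain (from Lys974), 30 ng, phosphorylates 250 ng biotin-poly(GT) in Hepes pH 7.4 with MgCl2, MnCl2 and Na3VO4. Reaction started with 4 μM ATP stock, run 10 min at 30° C, stopped with EDTA. Phosphotyrosine is detected by HTRF.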
A general note: TR-FRET usually uses a lanthanide donor and a delayed reading to cut background.

Test [2] has as its system Human gastric cancer cells (MKN-45). In words: Inhibitory activity against the proliferation of human gastric cancer cells (MKN-45). It is filed as cell-based. The settings on record: 72 h, MKN-45, 1% FBS RPMI1640, 3 days, Cell Counting Kit-8. The procedure, abridged: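 MKN-45 cells seeded overnight in RPMI1640 with 1% FBS, then exposed to compound for 3 days at 37° C, 5% CO2. Viability read with CCK-8 after about 1.5 hrs, absorbance at 450 nm (reference 660 nm).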
A general note: Tetrazolium dyes change colour on reduction, which living cells bring about.

pIC50: −log10 of the molar value.

T1 sequence (P08581 956-1390 limits assumed): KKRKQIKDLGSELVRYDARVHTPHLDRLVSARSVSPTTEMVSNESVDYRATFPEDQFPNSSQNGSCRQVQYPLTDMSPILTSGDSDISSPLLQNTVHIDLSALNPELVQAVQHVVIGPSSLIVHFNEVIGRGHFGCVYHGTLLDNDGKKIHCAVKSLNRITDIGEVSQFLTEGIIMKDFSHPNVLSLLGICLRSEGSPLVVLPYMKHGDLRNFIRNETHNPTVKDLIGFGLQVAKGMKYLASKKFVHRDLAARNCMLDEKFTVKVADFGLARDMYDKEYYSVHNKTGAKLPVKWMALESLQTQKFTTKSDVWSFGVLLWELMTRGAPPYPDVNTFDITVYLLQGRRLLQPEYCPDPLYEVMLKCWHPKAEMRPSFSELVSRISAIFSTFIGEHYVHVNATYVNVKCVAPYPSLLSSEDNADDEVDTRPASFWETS

The term pIC50 denotes the IC50 on a negative log10 scale, so that one unit is a factor of ten. A low value points to a high IC50. `O=C(Nc1cc(Oc2ccc(NC(=O)C3(C(=O)Nc4ccc(F)cc4)CC3)c(F)c2)ccn1)N1CCC(N2CCC2)CC1` [Example 9, N-{4-[(2-{[(4-Azetidin-1-ylpiperidin-1-yl)carbonyl]amino}pyridin-4-yl)oxy]-2-fluorophenyl}-N′-(4-fluorophenyl)cyclopropane-1,1-dicarboxamide]: the pIC50 in test [1] was 7.28; in test [2], 7.59.
As to `O=C(Nc1cc(Oc2ccc(NC(=O)C3(C(=O)Nc4ccc(F)cc4)CC3)cc2)ccn1)N1CCOCC1` [Example 68, N-(4-Fluorophenyl)-N′-[4-({2-[(morpholin-4-ylcarbonyl)amino]pyridin-4-yl}oxy)phenyl]cyclopropane-1,1-dicarboxamide], the values for the pIC50 in test [1] and in test [2] were 7.64 and 6.87, respectively.

These data come from patent US7855290B2, “Pyridine derivatives and pyrimidine derivatives (3)” (Eisai R&D Management Co., Ltd., priority 2005, dated 2010).
